Source: US20080242622A1, “Identification of genetic alterations that modulate drug sensitivity in cancer treatments” (Cold Spring Harbor Laboratory, priority 2007, published 2008)
Values joined by “and” are separate entries in the source; they are usually repeats but may differ in a detail not shown here. Equal entries are not always repeated.

Key:
[1] = test system: Eμ-Myc Arf^−/− lymphoma cells; assay: Apoptotic response / in vitro viability of lymphoma cells to doxorubicin; assay type: cell-based, murine; details: Mus musculus; apoptotic response within 24 hours
Method: Competition and viability assays were performed according to the following protocols. 2 days post infection, lymphoma cells were split into replicate wells of 500,000 cells in 12 well plates. Following 24 hour treatments with a range of drug doses, the GFP positive percentage was quantified in the surviving cell population using a BD LSRII flow cytometer. The live cell population was gated via a forward scatter (FSC) versus side scatter (SSC) plotting. […] For in vitro cell viability assays, lymphoma cells were treated in triplicate at the indicated doses of doxorubicin/camptothecin. Viability was determined after 24 hours by an FSC versus SSC gate and plotted relative to untreated viability.

[2] = test system: shTop1 2215 relapsed tumor #4 cells; assay: Ex vivo viability of relapsed tumor cells (propidium iodide exclusion flow cytometry); assay type: cell-based, mice; details: treated ex-vivo for 24 hours
From the text: Viability, measured by propidium iodide exclusion flow cytometry, is plotted relative to untreated cells.

[3] = congestive heart failure, dilated cardiomyopathy, death; cited from earlier work

| IC50 [1] | SMILES | drug resistance of Top2A down-regulated relapse compared to control primary tumor [2] | cumulative dose at which risks of cardiac side effects dramatically increase [3] |
| --- | --- | --- | --- |
| ~0.007 µg/mL and ~16 nM | COc1cccc2c1C(=O)c1c(O)c3c(c(O)c1C2=O)C[C@@](O)(C(=O)CO)C[C@@H]3O[C@H]1C[C@H](N)[C@H](O)[C@H](C)O1 [doxorubicin] | doxorubicin resistance | ≥ 550 mg/m^2 |
|  | N.N.[Cl][Pt][Cl] [cisplatin] | not cross-resistance to cisplatin |  |
